# Data published in patent US20080306155A1, “METHOD FOR TREATING RENAL DISEASE” (priority 2004, published 2008).
# Values joined by “and” are separate entries in the source; they are usually repeats but may differ in a detail not shown here. Identical values can stand only once.
# Experiments:
# Assay type in all cases: cell-based, rat
# [1] = tested on: isolated glomeruli; assay: Albumin permeability (Palb) of isolated glomeruli; conditions: glomeruli from Dahl S rats fed HS diet for 7 days; 10 ng/ml
# [2] = tested on: isolated glomeruli; assay: Albumin permeability (Palb) of isolated glomeruli; conditions: 10 ng/ml
# Procedure: Measurement of Albumin Permeability (Palb): Glomeruli were isolated using the sieving method as previously described in a medium containing 5 g/dl of bovine serum albumin (BSA). See, Sharma R, et al, Kidney Intl. 58:131-136 (2000); and Savin V, et al. J. Am. Soc. Nephrol. 3:1260-1269 (1992). In each experimental condition, Palb was determined from the change in glomerular volume (•V) after exchange of the bath with medium containing 1 g/dl albumin. Palb was calculated as 1−(•Vexperimental/•Vcontrol) where glomeruli from SD rats fed a normal-salt diet were used to provide the control value for each experiment. To verify that lack of •Vs in Dahl S rats were related to changes in Palb rather than to changes in mechanical properties of glomeruli, additional studies were performed in which the glomeruli were exposed to a 5% solution of high molecular weight dextran.
# In other experiments, we examined the interaction of TGF-• and 20-HETE on Palb in glomeruli isolated from SD rats and Dahl S rats fed either a LS diet or a HS diet for 4 days. Glomeruli were preincubated with vehicle or TGF-•1 (10 ng/ml) for 15 minutes at 37° C. and changes in Palb were determined. Glomeruli were also pretreated with 5, 14-20-HEDE (WIT003) (1 μmol/L; Taisho Pharmaceutical; Tokyo, Japan) (Alonso-Galicia et al., supra; and Yu et al., supra), for 15 minutes at 37° C. and the Palb response to TGF-• 1 (10 ng/ml) was redetermined. A minimum of 5 glomeruli from each rat were studied, and the experiments were performed using •5 rats per treatment group.
# [3] = tested on: glomerular production of 20-HETE; assay: LC/MS measurement of glomerular 20-HETE production
# Procedure: Liquid Chromatography/Mass Spectroscopy measurement of glomerular 20-HETE production: Glomeruli (approximately 20 μg protein) were incubated in a 0.1 mol/L KPO4 buffer containing 1 mmol/L NADPH for 30 minutes at 37° C. in the presence and absence of TGF-•1 (10 ng/ml). Incubations were stopped by acidification with formic acid, homogenized, and the homogenate extracted with chloroform:methanol (2:1) after addition of 10 ng of internal standard, 14,15-epoxyeicosa-5(Z)-enoic-methyl sulfonylimide (EEZE). Samples were reconstituted in 50% acetonitrile, cleaned up using on online, reverse-phase high performance liquid chromatography (HPLC) trapping column, and then the HETEs and epoxyeicosatrienoic acids (EETs) in the samples were separated using an isocratic step gradient on an 18C—RP 2×250 mm microbore HPLC (BetaBasic18 150×21 3•m; Thermo Hypersil-Keystone; Bellefonte, Pa.) using a mobile phase consisting of acetonitrile:water:acetic acid (57:43:0.1) for 20 minutes to resolve the HETEs followed by acetonitrile:water:acetic acid (63:37:0.1) for 15 minutes to resolve the EETs. Samples were ionized using negative ion electrospray and the peaks eluting with a mass/charge ratio (m/z) of 319 (HETEs and EETs) or 323 (internal standard) were isolated and monitored in the selective ion mass spectroscopy (MS) mode using an Agilent LSD ion trap mass spectrometer (Agilent Technologies 1100; Santa Clara Calif.). The ratio of ion abundances in the peaks of interest (HETEs and EETs, m/z 319) versus that corresponding to the closely eluting internal standard (EEZE, m/z 323) were determined and compared with a standard curve generated over a range from 0.1 ng to 2 ng of 20-HETE and EETs with each batch of samples.
# [4] = glomeruli pretreated with TGF-•1 10 ng/ml
substance,measurement,setting,value
"TGF-•1: transforming growth factor-beta 1, applied to isolated glomeruli at 10 ng/ml",effect on Palb,[1],no effect
same,Palb after TGF-•1,[2]; glomeruli from Dahl S rats fed HS diet for 4 days,0.87±0.02
same,Palb after TGF-•1,[2]; glomeruli from Dahl S rats fed a LS diet,0.75±0.01
same,Palb after TGF-•1,"[2]; glomeruli from SD rats, 15 minutes, 37° C.",0.60±0.02 and 0.56±0.02
same,glomerular production of 20-HETE,[3]; SD glomeruli with TGF-•1 10 ng/ml,3.4±0.5 ·g/30 minutes/mg protein
same,"formation of 15-, 12- or 5-HETE or EETs",[3]; [4],without affecting
same,reduction of formation of 20-HETE,[3]; [4],97%
